Reference: ChEMBL document CHEMBL3885881, “DrugMatrix”

Organism: Rattus norvegicus
Assay: DrugMatrix - Regimen: Daily Repeat
Assay type: toxicity, organism-based, Sprague-Dawley
Set-up: regimen Daily Repeat, gender Male, age 6-8 weeks
Details: in vivo, po, route oral GAVAGE, vehicle .5 % CMC; for ABSOLUTE BASOPHIL / ABSOLUTE EOSINOPHIL / ABSOLUTE LYMPHOCYTE / ABSOLUTE MONOCYTE / ABSOLUTE SEGMENTED NEUTROPHIL / BASOPHIL / EOSINOPHIL / ERYTHROCYTE COUNT / HEMATOCRIT / HEMOGLOBIN / LEUKOCYTE COUNT / LYMPHOCYTE / MEAN CORPUSCULAR HEMOGLOBIN / MEAN CORPUSCULAR HEMOGLOBIN CONCENTRATION / MEAN CORPUSCULAR VOLUME / MONOCYTE / NEUTROPHIL / NUCLEATED RED BLOOD CELLS / PLATELET COUNT: tissue Blood; for ALANINE AMINOTRANSFERASE / ALBUMIN / ALKALINE PHOSPHATASE / ASPARTATE AMINOTRANSFERASE / BLOOD UREA NITROGEN / CARBON DIOXIDE / CHLORIDE / CHOLESTEROL / CREATINE PHOSPHOKINASE / CREATININE / GLUCOSE / LACTATE DEHYDROGENASE / LIPASE / PHOSPHORUS / POTASSIUM / SODIUM / TOTAL BILIRUBIN / TOTAL PROTEIN / URIC ACID: tissue Plasma
[1] = 2000 mg/kg, 120 h, dose level High, time 5 day
[2] = […], 72 h, dose 9.5 mg/Kg, dose level Low, time 3 day
[3] = […], 120 h, dose 9.5 mg/Kg, dose level Low, time 5 day

SMILES: O=C1Nc2ccc(Cl)cc2C(c2ccccc2Cl)=NC1O (centres undefined) [LORAZEPAM]
- ABSOLUTE BASOPHIL [1]: 0 CELLS/uL
- ABSOLUTE EOSINOPHIL [1]: 0 CELLS/uL
- ABSOLUTE LYMPHOCYTE [1]: 9298.5 CELLS/uL
- ABSOLUTE MONOCYTE [1]: 148 CELLS/uL
- ABSOLUTE SEGMENTED NEUTROPHIL [1]: 903.5 CELLS/uL
- BASOPHIL [1]: 0%
- EOSINOPHIL [1]: 0%
- ERYTHROCYTE COUNT [1]: 6.25 x10E6/uL
- HEMATOCRIT [1]: 36.95%
- HEMOGLOBIN [1]: 14.95 G/DL
- LEUKOCYTE COUNT [1]: 10.35 x10E3/uL
- LYMPHOCYTE [1]: 89%
- MEAN CORPUSCULAR HEMOGLOBIN [1]: 23.95 pg
- MEAN CORPUSCULAR HEMOGLOBIN CONCENTRATION [1]: 40.5 G/DL
- MEAN CORPUSCULAR VOLUME [1]: 59.1 fL
- MONOCYTE [1]: 1.5%
- NEUTROPHIL [1]: 9.5%
- NUCLEATED RED BLOOD CELLS [1]: 0 /100WBC
- PLATELET COUNT [1]: 1267 x10E3/uL
- ALANINE AMINOTRANSFERASE [1]: 64.5 u/L
- ALBUMIN [1]: 4.15 G/DL
- ALKALINE PHOSPHATASE [1]: 283.5 u/L
- ASPARTATE AMINOTRANSFERASE [1]: 92 u/L
- BLOOD UREA NITROGEN [1]: 21.5 mg/dL
- CARBON DIOXIDE [1]: 29.5 mmol/L
- CHLORIDE [1]: 100.5 MEQ/L
- CHOLESTEROL [1]: 76.5 mg/dL
- CREATINE PHOSPHOKINASE [1]: 814 u/L
- CREATININE [1]: 0.18 mg/dL
- GLUCOSE [1]: 150.5 mg/dL
- LACTATE DEHYDROGENASE [1]: 206 u/L
- LIPASE [1]: 17.5 u/L
- PHOSPHORUS [1]: 8.55 mg/dL
- POTASSIUM [1]: 5.62 MEQ/L
- SODIUM [1]: 145.4 MEQ/L
- TOTAL BILIRUBIN [1]: 0.1 mg/dL
- TOTAL PROTEIN [1]: 6.2 G/DL
- URIC ACID [1]: 0.65 mg/dL
- ABSOLUTE BASOPHIL [2]: 0 CELLS/uL
- ABSOLUTE EOSINOPHIL [2]: 223.33 CELLS/uL
- ABSOLUTE LYMPHOCYTE [2]: 14276.33 CELLS/uL
- ABSOLUTE MONOCYTE [2]: 155.67 CELLS/uL
- ABSOLUTE SEGMENTED NEUTROPHIL [2]: 1244.67 CELLS/uL
- BASOPHIL [2]: 0%
- EOSINOPHIL [2]: 1.33%
- ERYTHROCYTE COUNT [2]: 5.67 x10E6/uL
- HEMATOCRIT [2]: 36.03%
- HEMOGLOBIN [2]: 13.93 G/DL
- LEUKOCYTE COUNT [2]: 15.9 x10E3/uL
- LYMPHOCYTE [2]: 89.67%
- MEAN CORPUSCULAR HEMOGLOBIN [2]: 24.57 pg
- MEAN CORPUSCULAR HEMOGLOBIN CONCENTRATION [2]: 38.67 G/DL
- MEAN CORPUSCULAR VOLUME [2]: 63.57 fL
- MONOCYTE [2]: 1%
- NEUTROPHIL [2]: 8%
- NUCLEATED RED BLOOD CELLS [2]: 0 /100WBC
- PLATELET COUNT [2]: 1298 x10E3/uL
- ALANINE AMINOTRANSFERASE [2]: 70 u/L
- ALBUMIN [2]: 4.33 G/DL
- ALKALINE PHOSPHATASE [2]: 451.67 u/L
- ASPARTATE AMINOTRANSFERASE [2]: 99.67 u/L
- BLOOD UREA NITROGEN [2]: 17.33 mg/dL
- CARBON DIOXIDE [2]: 24 mmol/L
- CHLORIDE [2]: 102.67 MEQ/L
- CHOLESTEROL [2]: 65.67 mg/dL
- CREATINE PHOSPHOKINASE [2]: 485.67 u/L
- CREATININE [2]: 0.22 mg/dL
- GLUCOSE [2]: 158 mg/dL
- LACTATE DEHYDROGENASE [2]: 594 u/L
- LIPASE [2]: 11 u/L
- PHOSPHORUS [2]: 10.17 mg/dL
- POTASSIUM [2]: 6.03 MEQ/L
- SODIUM [2]: 142.63 MEQ/L
- TOTAL BILIRUBIN [2]: 0.13 mg/dL
- TOTAL PROTEIN [2]: 5.93 G/DL
- URIC ACID [2]: 1.43 mg/dL
- ABSOLUTE BASOPHIL [3]: 0 CELLS/uL
- ABSOLUTE EOSINOPHIL [3]: 0 CELLS/uL
- ABSOLUTE LYMPHOCYTE [3]: 12357 CELLS/uL
- ABSOLUTE MONOCYTE [3]: 82 CELLS/uL
- ABSOLUTE SEGMENTED NEUTROPHIL [3]: 461 CELLS/uL
- BASOPHIL [3]: 0%
- EOSINOPHIL [3]: 0%
- ERYTHROCYTE COUNT [3]: 6.11 x10E6/uL
- HEMATOCRIT [3]: 37.87%
- HEMOGLOBIN [3]: 14.63 G/DL
- LEUKOCYTE COUNT [3]: 12.9 x10E3/uL
- LYMPHOCYTE [3]: 95.67%
- MEAN CORPUSCULAR HEMOGLOBIN [3]: 23.97 pg
- MEAN CORPUSCULAR HEMOGLOBIN CONCENTRATION [3]: 38.63 G/DL
- MEAN CORPUSCULAR VOLUME [3]: 62.07 fL
- MONOCYTE [3]: 0.67%
- NEUTROPHIL [3]: 3.67%
- NUCLEATED RED BLOOD CELLS [3]: 0 /100WBC
- PLATELET COUNT [3]: 1313 x10E3/uL
- ALANINE AMINOTRANSFERASE [3]: 62 u/L
- ALBUMIN [3]: 4.13 G/DL
- ALKALINE PHOSPHATASE [3]: 373.33 u/L
- ASPARTATE AMINOTRANSFERASE [3]: 87.67 u/L
- BLOOD UREA NITROGEN [3]: 12 mg/dL
- CARBON DIOXIDE [3]: 25 mmol/L
- CHLORIDE [3]: 104.33 MEQ/L
- CHOLESTEROL [3]: 26.67 mg/dL
- CREATINE PHOSPHOKINASE [3]: 550.33 u/L
- CREATININE [3]: 0.15 mg/dL
- GLUCOSE [3]: 136.33 mg/dL
- LACTATE DEHYDROGENASE [3]: 527.67 u/L
- LIPASE [3]: 9.33 u/L
- PHOSPHORUS [3]: 10.97 mg/dL
- POTASSIUM [3]: 6.04 MEQ/L
- SODIUM [3]: 143.63 MEQ/L
- TOTAL BILIRUBIN [3]: 0.13 mg/dL
- TOTAL PROTEIN [3]: 5.8 G/DL
- URIC ACID [3]: 1.67 mg/dL
